Values after ≈ are worked out from the molar mass of the structure shown. Active and inactive are the calls of the source.

The subject of data set [1] is Staphylococcus aureus. In words: Antibacterial activity against methicillin sensitive Staphylococcus aureus SA113 by broth microdilution method. In kind it is functional. (Broth dilution looks for growth in wells or tubes with falling amounts of substance.)
Data set [2] concerns Enterococcus faecium. The experiment in a line: Antibacterial activity against Enterococcus faecium EFM64 by broth microdilution method. Format: functional.
In data set [3] the test system is Enterococcus faecalis. In words: Antibacterial activity against Enterococcus faecalis OG1RF by broth microdilution method. Format: functional.
Data set [4] in a line: Hemolytic activity against human erythrocytes measured after 1 hr. Format: toxicity, cell-based, Erythrocyte.
Data set [5] is described as follows: Cytotoxicity against human LX2 cells incubated for 24 hrs by CCK8 assay. In kind it is toxicity, cell-based. Conditions: LX-2 cells. Background: Tetrazolium assays rely on reduction of a dye to a coloured formazan, in cell work by metabolically active cells.
Data set [6] has as its system Staphylococcus epidermidis. The experiment in a line: Antibacterial activity against Staphylococcus epidermidis SE1457 by broth microdilution method. Format: functional.
Data set [7] concerns Staphylococcus aureus. In words: Antibacterial activity against methicillin resistant Staphylococcus aureus USA300 infected in BALB/c mouse pneumonia model assessed as log reduction in lung bacterial count at 20 mg/kg, ip administered every 12 hrs for 3 times and measured after 48 hrs. Format: functional.
The test system of data set [8] is Staphylococcus aureus. In words: Antibacterial activity against methicillin resistant Staphylococcus aureus USA300 infected in BALB/c mouse pneumonia model assessed as increase in mouse survival rate at 20 mg/kg, ip administered every 12 hrs for 3 times and measured after 48 hrs. Format: functional, organism-based.
The target in data set [9] is T1, Sensor protein kinase WalK (Staphylococcus aureus, UniProt Q9RDT3).
T1 sequence (Q9RDT3 whole entry): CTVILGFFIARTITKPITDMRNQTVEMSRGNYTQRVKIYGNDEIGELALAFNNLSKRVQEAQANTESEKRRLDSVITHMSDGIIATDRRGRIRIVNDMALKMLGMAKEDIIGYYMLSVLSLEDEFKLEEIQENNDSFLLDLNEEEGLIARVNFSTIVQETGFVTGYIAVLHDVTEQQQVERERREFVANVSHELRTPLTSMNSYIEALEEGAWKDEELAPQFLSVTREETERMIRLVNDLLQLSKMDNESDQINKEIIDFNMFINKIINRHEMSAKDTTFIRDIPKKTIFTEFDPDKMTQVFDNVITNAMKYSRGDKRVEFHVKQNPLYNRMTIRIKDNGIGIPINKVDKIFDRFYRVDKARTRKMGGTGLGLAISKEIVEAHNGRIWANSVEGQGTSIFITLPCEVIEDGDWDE
In words: Inhibition of Staphylococcus aureus YycG expressed in Escherichia coli preincubated for 30 mins followed by ATP addition and measured after 30 mins by kinase-Glo luminescent assay. (Kinase-Glo reads ATP consumption through a luciferase reaction.)

The test system of data set [10] is Staphylococcus epidermidis. In words: Induction of resistance development in Staphylococcus epidermidis SE1457 assessed as fold increase in MIC at 1/2 MIC incubated for 16 hrs after 20 serial passages. In kind it is functional.
The subject of data set [11] is Staphylococcus aureus. In words: Induction of resistance development in methicillin sensitive Staphylococcus aureus SA113 assessed as fold increase in MIC at 1/2 MIC incubated for 16 hrs after 20 serial passages. Format: functional.

What is called MIC is the smallest concentration in the dilution series that meets the test's criterion for growth inhibition. The low end stands for greater potency, the high end for weaker potency. For orientation: HC50 means the concentration giving 50% haemolysis. Low values mean more damage to red cells, high ones less damage to red cells. Broadly, the CC50 is the concentration giving 50% cytotoxicity. A higher CC50 goes with better tolerance by the cells. Consider `O=C(C1=C(O)C(=O)N(c2nnc(SCc3ccccc3Cl)s2)C1c1cccc(O)c1)c1cc2ccccc2o1` (stereo not given), for which the MIC in data set [1], in [2], in data set [3] and in data set [6] was greater than 100 µM each time. This compound also returned an HC50 at 1 h in data set [4] greater than 200 µM. The same compound gave a CC50 at 24 h in data set [5] greater than 100 µM.

For the compound `COc1ccc(O)c(C2C(C(=O)c3cc4ccccc4o3)=C(O)C(=O)N2c2nnc(SCc3ccccc3Cl)s2)c1` (stereo not given), the MIC in data set [1] amounted to 50 µM (≈ 30.3 µg/mL); in [2], 100 µM (≈ 60.6 µg/mL); in [3], 100 µM (≈ 60.6 µg/mL); in data set [6], 50 µM (≈ 30.3 µg/mL). In data set [4], this compound displayed an HC50 at 1 h greater than 200 µM. Also, in data set [5], the 50% cytotoxic concentration (CC50) at 24 h was greater than 100 µM.

With `CN[C@H](CC(C)C)C(=O)N[C@H]1C(=O)N[C@@H](CC(N)=O)C(=O)N[C@H]2C(=O)N[C@H]3C(=O)N[C@H](C(=O)N[C@H](C(=O)O)c4cc(O)cc(O)c4-c4cc3ccc4O)[C@H](O)c3ccc(c(Cl)c3)Oc3cc2cc(c3O[C@@H]2O[C@H](CO)[C@@H](O)[C@H](O)[C@H]2O[C@H]2C[C@](C)(N)[C@H](O)[C@H](C)O2)Oc2ccc(cc2Cl)[C@H]1O` [VANCOMYCIN], the “log(activity)” value in [7] amounted to 2. For the same compound, the outcome in [8] was Active.

`O=C(C1=C(O)C(=O)N(c2nnc(SCc3ccc(Cl)cc3)s2)C1c1ccccc1O)c1cc2ccccc2o1` (stereo not given): the MIC in data set [1] was found to be 25 µM (≈ 14.4 µg/mL); in data set [2] it was 50 µM (≈ 28.8 µg/mL); in data set [3], 50 µM (≈ 28.8 µg/mL); in data set [6], 25 µM (≈ 14.4 µg/mL). Further, the HC50 at 1 h in data set [4] was greater than 200 µM. The CC50 at 24 h in data set [5] is greater than 100 µM.

Take `O=C(C1=C(O)C(=O)N(c2nnc(SCc3cccc(Cl)c3)s2)C1c1ccccc1O)c1cc2ccccc2o1` (stereo not given): the MIC in data set [1] worked out at 50 µM (≈ 28.8 µg/mL); in data set [2], 25 µM (≈ 14.4 µg/mL); in [3] it was 25 µM (≈ 14.4 µg/mL); in data set [6], 25 µM (≈ 14.4 µg/mL). The compound further gave an HC50 at 1 h in data set [4] greater than 200 µM. The CC50 at 24 h in [5] was greater than 100 µM.

Take `COc1cc(C2C(C(=O)c3cc4ccccc4o3)=C(O)C(=O)N2c2nnc(SCc3ccccc3)s2)ccc1O` (stereo not given): the MIC in [1], in [2], in [3] and in data set [6] was greater than 100 µM in each case. This compound showed an HC50 at 1 h in data set [4] greater than 200 µM. This compound also displayed a CC50 at 24 h in [5] greater than 100 µM.

Regarding `O=C(C1=C(O)C(=O)N(c2nnc(SCc3ccccc3)s2)C1c1cccc(O)c1O)c1cc2ccccc2o1` (stereo not given), the MIC in data set [1] is 50 µM (≈ 27.9 µg/mL); in data set [2], 25 µM (≈ 13.9 µg/mL); in [3] it was 25 µM (≈ 13.9 µg/mL); in data set [6] it was 50 µM (≈ 27.9 µg/mL). Besides, the HC50 at 1 h in data set [4] was greater than 200 µM. In data set [5], this compound yielded a CC50 at 24 h greater than 100 µM.

As for `O=C(C1=C(O)C(=O)N(c2nnc(SCc3ccccc3)s2)C1c1ccccc1O)c1ccc(C(F)(F)F)cc1` (stereo not given), the MIC in data set [1], in data set [2], in data set [3] and in data set [6] was greater than 100 µM in each case. This compound returned an HC50 at 1 h in data set [4] greater than 200 µM. Moreover, the CC50 at 24 h in data set [5] was greater than 100 µM.

On to `O=C(C1=C(O)C(=O)N(c2nnc(SCc3ccccc3)s2)C1c1ccc(O)c(O)c1)c1cc2ccccc2o1` (stereo not given), for which the MIC in [1], in data set [2], in data set [3] and in [6] was greater than 100 µM throughout. The same compound returned an HC50 at 1 h in [4] greater than 200 µM. This compound also displayed a half-maximal cytotoxic concentration (CC50) at 24 h in data set [5] greater than 100 µM.

As to `O=C(C1=C(O)C(=O)N(c2nnc(SCc3ccccc3Cl)s2)C1c1ccccc1O)c1cc2ccccc2s1` (stereo not given), the MIC in data set [1], in data set [2], in data set [3] and in data set [6] was greater than 100 µM in each case. The same compound displayed an HC50 at 1 h in [4] greater than 200 µM. The compound also came in with a CC50 at 24 h in data set [5] greater than 100 µM.

Consider `O=C(O)COc1ccc(C2C(C(=O)c3cc4ccccc4o3)=C(O)C(=O)N2c2nnc(SCc3ccccc3Cl)s2)cc1` (stereo not given), for which the MIC in data set [1], in [2], in [3] and in data set [6] was greater than 100 µM in each case. In data set [4], this compound yielded an HC50 at 1 h greater than 200 µM. Also, in data set [5], the CC50 at 24 h is greater than 100 µM.

In the case of `O=C(C1=C(O)C(=O)N(c2nnc(SCc3ccccc3)s2)C1c1ccccc1O)c1cc2ccccc2s1` (stereo not given), the MIC in data set [1], in data set [2], in data set [3] and in data set [6] was greater than 100 µM in each case. In addition, the HC50 at 1 h in data set [4] is greater than 200 µM. The compound also returned a CC50 at 24 h in [5] greater than 100 µM.

The IC50 is the concentration needed to halve the response being measured. High values mean weaker potency, low ones greater potency. `COc1cc(C2C(C(=O)c3cc4ccccc4o3)=C(O)C(=O)N2c2nnc(SCc3ccccc3Cl)s2)ccc1O` (stereo not given): the MIC in data set [1] is greater than 100 µM; in [2] it was greater than 100 µM; in data set [3], greater than 100 µM; in [6], 25 µM (≈ 15.2 µg/mL). Further, inhibition in data set [9] was half-maximal at 46.1 µM (IC50). The compound further came in with an HC50 at 1 h in [4] greater than 200 µM. The compound further returned a CC50 at 24 h in [5] greater than 100 µM.

For `CC(=O)NC[C@H]1CN(c2ccc(N3CCOCC3)c(F)c2)C(=O)O1`, the fold change (FC) in [10] and in data set [11] was 4 each time.

For the compound `O=C(C1=C(O)C(=O)N(c2nnc(SCc3ccccc3Cl)s2)C1c1ccc(O)cc1)c1cc2ccccc2o1` (stereo not given), the MIC in [1] is 100 µM (≈ 57.6 µg/mL); in [2] it was greater than 100 µM; in data set [3] it was greater than 100 µM; in data set [6], 50 µM (≈ 28.8 µg/mL). In data set [4], this compound came in with an HC50 at 1 h greater than 200 µM. The CC50 at 24 h in data set [5] is greater than 100 µM.

As to `O=C(C1=C(O)C(=O)N(c2nnc(SCc3ccccc3Cl)s2)C1c1ccc(O)c(Br)c1)c1cc2ccccc2o1` (stereo not given), the MIC in [1], in data set [2], in [3] and in data set [6] was greater than 100 µM each time. The compound further returned an HC50 at 1 h in data set [4] greater than 200 µM. This compound yielded a CC50 at 24 h in data set [5] greater than 100 µM.

For `COC(=O)COc1ccc(C2C(C(=O)c3cc4ccccc4o3)=C(O)C(=O)N2c2nnc(SCc3ccccc3Cl)s2)cc1` (stereo not given), the MIC in [1], in [2], in data set [3] and in data set [6] was greater than 100 µM each time. In [4], this compound had an HC50 at 1 h greater than 200 µM. The compound further showed a CC50 at 24 h in data set [5] greater than 100 µM.

On to `COc1ccc(C(=O)C2=C(O)C(=O)N(c3nnc(SCc4ccccc4)s3)C2c2ccccc2O)cc1` (stereo not given), for which the MIC in [1], in [2], in data set [3] and in data set [6] was greater than 100 µM throughout. Besides, the HC50 at 1 h in [4] was greater than 200 µM. This compound also registered a CC50 at 24 h in data set [5] greater than 100 µM.

As to `O=C(C1=C(O)C(=O)N(c2nnc(SCc3ccccc3)s2)C1c1ccccc1O)c1ccc([N+](=O)[O-])cc1` (stereo not given), the MIC in [1], in data set [2], in data set [3] and in [6] was greater than 100 µM each time. For the same compound, the HC50 at 1 h in data set [4] was greater than 200 µM. The CC50 at 24 h in [5] is greater than 100 µM.

With `O=C(C1=C(O)C(=O)N(c2nnc(SCc3ccccc3)s2)C1c1ccc(O)cc1O)c1cc2ccccc2o1` (stereo not given), the MIC in data set [1], in data set [2], in data set [3] and in [6] was greater than 100 µM in each case. This compound showed an HC50 at 1 h in [4] greater than 200 µM. For the same compound, in data set [5], the CC50 at 24 h was greater than 100 µM.

For `O=C(C1=C(O)C(=O)N(c2nnc(SCc3ccccc3Cl)s2)C1c1ccccc1)c1cc2ccccc2o1` (stereo not given), the MIC in data set [1], in data set [2], in data set [3] and in [6] was greater than 100 µM throughout. For the same compound, the HC50 at 1 h in data set [4] is greater than 200 µM. The CC50 at 24 h in [5] is greater than 100 µM.

For `O=C(C1=C(O)C(=O)N(c2nnc(SCc3ccccc3)s2)C1c1ccccc1O)c1ccc(F)cc1` (stereo not given), the MIC in data set [1], in [2], in data set [3] and in data set [6] was greater than 100 µM throughout. The same compound registered an HC50 at 1 h in data set [4] greater than 200 µM. The same compound gave a cytotoxic concentration (CC50) at 24 h in [5] greater than 100 µM.

The values are drawn from ChEMBL document CHEMBL5614418, “Discovery of novel dihydropyrrolidone-thiadiazole compound crosstalk between the YycG/F two-component regulatory pathway and cell membrane homeostasis to combat methicillin-resistant Staphylococcus aureus” (Eur J Med Chem, 2024).
